# According to PMC8308625, “Preclinical Studies in Anti-Trypanosomatidae Drug Development” (Pharmaceuticals, 2021):
# Where two headings read alike, the source gives them in different places.
# Experiments:
# [1] = system: Cell division cycle 42 (GTP binding protein, 25kDa); design: method as in pubchem.ncbi.nlm.nih.gov; settings: ref pubchem.ncbi.nlm.nih.gov; cited from earlier work
# [2] = molecular target: Neuropeptide S receptor isoform A; design: method as in pubchem.ncbi.nlm.nih.gov; settings: ref pubchem.ncbi.nlm.nih.gov; cited from earlier work
# [3] = molecular target: Aldehyde dehydrogenase 1 family, member A1; design: method as in pubchem.ncbi.nlm.nih.gov; settings: ref pubchem.ncbi.nlm.nih.gov; cited from earlier work
# [4] = molecular target: Sphingosine-1-phosphate receptor 4; design: method as in pubchem.ncbi.nlm.nih.gov; settings: ref pubchem.ncbi.nlm.nih.gov; cited from earlier work
# C. albicans = system: C. albicans; design: method as in pubchem.ncbi.nlm.nih.gov; settings: ref pubchem.ncbi.nlm.nih.gov; read-out: EC50 C. albicans Growth in the Presence of Fluconazole; cited from earlier work
# Hsf1 protein = system: Hsf1 protein; design: method as in pubchem.ncbi.nlm.nih.gov; settings: ref pubchem.ncbi.nlm.nih.gov; cited from earlier work
# Replicative DNA helicase = molecular target: Replicative DNA helicase; design: method as in pubchem.ncbi.nlm.nih.gov; settings: ref pubchem.ncbi.nlm.nih.gov; cited from earlier work
# [5] = design: method as in data provided by the DNDi program, non-published; settings: ref data provided by the DNDi program, non-published; cited from earlier work
# [6] = Nonspecific cytotoxicity in murine macrophages (MTT); settings: mouse, J774.1 murine macrophages
# Protocol: (§1) Cell viability was then assessed using the 3-(4,5-dimethylthiazol-2-yl)-2,5-diphenyltetrazolium bromide (MTT) colorimetric assay [1]. […] All assays were performed in triplicate [35].
# [7] = system: L. infantum reference strain (MHOM/BR/2002/LPC-RPV); test: Growth inhibition of L. infantum reference strain promastigotes (resazurin); settings: for Selectivity Index MΦ/Reference: EC50 J774.1 macrophages versus L. infantum reference strain; for EC50: Leishmania infantum, read-out: EC50 L. infantum Reference
# [8] = system: L. infantum veterinary isolate (MCAN_UY_2015_gPL8); test: Growth inhibition of L. infantum veterinary isolate promastigotes (resazurin); settings: for Selectivity Index MΦ/Veterinary: EC50 J774.1 macrophages versus L. infantum veterinary isolate; for EC50: Leishmania infantum, read-out: EC50 L. infantum Veterinary
# [9] = system: hepatocellular carcinoma (HepG2) cell line; settings: cited from earlier work
# P. falciparum = settings: cited from earlier work
# [10] = system: Leishmania donovani (amastigotes); settings: cited from earlier work
# T. b. brucei = settings: ref Duffy et al., 2017; read-out: EC50 T. brucei brucei; cited from earlier work
# T. cruzi [11] = system: T. cruzi; design: method as in Duffy et al., 2017; settings: ref Duffy et al., 2017; cited from earlier work
# Candida albicans Biofilm = system: Candida albicans Biofilm; design: method as in Vila and Lopez-Ribot, 2017; settings: ref Vila and Lopez-Ribot, 2017; read-out: EC50 Candida albicans Biofilm Inhibitor; cited from earlier work
# T. cruzi [12] = settings: Table 3, thiazolidene hydrazines; ref [13],[16],[19],[23],[25]; read-out: EC50 ± SD T. cruzi; cited from earlier work
# [13] = system: L. infantum reference strain (MHOM/BR/2002/LPC-RPV); settings: cited from earlier work
# [14] = system: L. infantum veterinary isolate (MCAN_UY_2015_gPL8); settings: cited from earlier work
# L. braziliensis = settings: Table 3, thiazolidene hydrazines; ref [13],[16],[19],[23],[25]; read-out: EC50 ± SD L. brazils; cited from earlier work
# [15] = system: J774.1 murine macrophages; test: Nonspecific cytotoxicity in murine macrophages (MTT); settings: Mus musculus, J774.1, read-out: EC50 ± SD MΦ
# Protocol: as §1
# L. amazonensis = test: Growth inhibition of L. amazonensis promastigotes (resazurin); settings: EC50 mammalian cell line/EC50 L. amazonensis
structure (smiles),measurement,setting,value
"COc1cccc(-n2nnnc2S(C)(=O)=O)c1 [MMV272144, 1-(3-Methoxyphenyl)-5-(methylsulfonyl)-1H-tetrazole]",EC50,[1],15 µM
same,EC50,[2],10 µM
same,EC50,[3],12.5 µM
same,EC50,[4],1.3 µM
same,EC50,C. albicans,1.8 µM
same,EC50,Hsf1 protein,6.6 µM
same,EC50,Replicative DNA helicase,3.1 µM
same,in vivo absorption,[5],low
same,metabolic stability,[5],low
same,EC50 at 48 h,[6],> 50 µM
same,Selectivity Index MΦ/Reference,[7],>21
same,EC50,[7],2.4 ± 0.3 µM
same,Selectivity Index MΦ/Veterinary,[8],>42
same,EC50,[8],1.2 ± 0.1 µM
"c1ccc(-c2nc(NC3CCCCC3)cc(C3CC3)n2)nc1 [MMV021013, N-Cyclohexyl-6-cyclopropyl-2-pyridin-2-ylpyrimidin-4-amine]",EC50,"[9]; ref Peña et al., 2015, read-out: EC50 HepG2 human cell line",400 µM
same,EC50,"P. falciparum; ref Ballell et al., 2013, read-out: EC50 P. falciparum",0.7 µM
same,EC50,"[10]; ref Peña et al., 2015",0.8 µM
same,activity against the L. donovani form found in a mammalian host,"[10]; ref [23],[24]",significant activity
same,EC50,T. b. brucei,3.5 µM
same,EC50,T. cruzi [11],1.7 µM
same,EC50 at 48 h,[6],> 50 µM
same,Selectivity Index MΦ/Reference,[7],>125
same,EC50,[7],0.4 ± 0.1 µM
same,Selectivity Index MΦ/Veterinary,[8],>167
same,EC50,[8],0.3 ± 0.1 µM
"Cc1[nH]c2ccccc2c1[C@H](c1cccs1)N1CCN(C)CC1 [MMV688768, 2-Methyl-3-[(R)-(4-methylpiperazin-1-yl)-thiophen-2-ylmethyl]-1H-indole]",EC50,Candida albicans Biofilm,3.1 µM
same,EC50,"[9]; ref Vila and Lopez-Ribot, 2017, read-out: EC50 HepG2 cell line",32 µM
same,EC50,"P. falciparum; ref Duffy et al., 2017, read-out: EC50 P. falciparum ABS activity",4.7 µM
same,EC50,T. b. brucei,1.5 µM
same,EC50 at 48 h,[6],> 50 µM
same,Selectivity Index MΦ/Reference,[7],>5
same,EC50,[7],9.8 ± 0.5 µM
same,Selectivity Index MΦ/Veterinary,[8],>7
same,EC50,[8],6.8 ± 0.1 µM
"CCCCCCCCCCCCCCCCOP(=O)([O-])OCC[N+](C)(C)C [Miltefosine, reference compound]",EC50,T. cruzi [12],8 ± 2 µM
same,EC50,"[13]; Miltefosine comparative data, ref [19], read-out: EC50 L. infantum Reference",5.3 ± 0.1 µM
same,EC50,"[13]; Table 3, Miltefosine control, footnote f, ref [13],[16],[19],[23],[25], read-out: EC50 ± SD Lin–Ref",5.3 ± 0.1 µM
same,EC50,"[14]; Miltefosine comparative data, ref [19], read-out: EC50 L. infantum Veterinary",4.1 ± 0.1 µM
same,EC50,"[14]; Table 3, Miltefosine control, footnote f, ref [13],[16],[19],[23],[25], read-out: EC50 ± SD Lin–Vet",4.1 ± 0.1 µM
same,EC50,L. braziliensis,5 ± 2 µM
same,EC50 at 48 h,[6],50 ± 7 µM
same,EC50,[15],50 ± 7 µM
same,Selectivity Index MΦ/L. amaz,L. amazonensis,10
same,Selectivity Index MΦ/Reference,[7],10
same,Selectivity Index MΦ/Veterinary,[8],12
same,Selectivity Index MΦ/Lin–Vet,[8]; EC50 mammalian cell line/EC50 L. infantum veterinary isolate,10
